In the kinase profiling compilation of Christmann-Franck et al. (2016):

Experiments:
Assay in all cases: KINOMEscan competition binding
Details in all cases: compound 10.0 µM
RIPK1 (human) = RIPK1 (human) (UniProt Q13546)
PAK2 (human) = PAK2 (human) (UniProt Q13177)
HCK (human) = HCK (human) (UniProt P08631)
LTK (human) = LTK (human) (UniProt P29376)
FLT4 (human) = FLT4 (human) (UniProt P35916)
CRK2 (P.falciparum) = CRK2 (P.falciparum) (UniProt P61075)
CDKL3 (human) = CDKL3 (human) (UniProt Q8IVW4)
CDK17 (human) = CDK17 (human) (UniProt Q00537)
TBK1 (human) = TBK1 (human) (UniProt Q9UHD2)
PKMYT1 (human) = PKMYT1 (human) (UniProt Q99640)
EPHA1 (human) = EPHA1 (human) (UniProt P21709)
TGFBR2 (human) = TGFBR2 (human) (UniProt P37173)
PLK3 (human) = PLK3 (human) (UniProt Q9H4B4)
FLT1 (human) = FLT1 (human) (UniProt P17948)
MYLK (human) = MYLK (human) (UniProt Q15746)
STK24 (human) = STK24 (human) (UniProt Q9Y6E0)
SYK (human) = SYK (human) (UniProt P43405)
HIPK1 (human) = HIPK1 (human) (UniProt Q86Z02)
[1] = test system: KIT (human), P10721 [A829P]
RPS6KA1 KD2 (human) = RPS6KA1 KD2 (human) (UniProt Q15418)
RET (human) = RET (human) (UniProt P07949)
MYO3A (human) = MYO3A (human) (UniProt Q8NEV4)
TSSK1B (human) = TSSK1B (human) (UniProt Q9BXA7)
MAP3K15 (human) = MAP3K15 (human) (UniProt Q6ZN16)
GRK4 (human) = GRK4 (human) (UniProt P32298)
CHEK1 (human) = CHEK1 (human) (UniProt O14757)
CDK13 (human) = CDK13 (human) (UniProt Q14004)
STK35 (human) = STK35 (human) (UniProt Q8TDR2)
CDK5 (human) = CDK5 (human) (UniProt Q00535)
AURKA (human) = AURKA (human) (UniProt O14965)
SIK3 (human) = SIK3 (human) (UniProt Q9Y2K2)
CLK4 (human) = CLK4 (human) (UniProt Q9HAZ1)
SRPK2 (human) = SRPK2 (human) (UniProt P78362)
EPHA7 (human) = EPHA7 (human) (UniProt Q15375)
MAP3K11 (human) = MAP3K11 (human) (UniProt Q16584)
PIK3C2B (human) = PIK3C2B (human) (UniProt O00750)
HIPK2 (human) = HIPK2 (human) (UniProt Q9H2X6)
MUSK (human) = MUSK (human) (UniProt O15146)
CDK19 (human) = CDK19 (human) (UniProt Q9BWU1)
CaMK1 (human) = CaMK1 (human) (UniProt Q14012)

Chain of CDK17 (human) (Q00537 whole entry, looked up): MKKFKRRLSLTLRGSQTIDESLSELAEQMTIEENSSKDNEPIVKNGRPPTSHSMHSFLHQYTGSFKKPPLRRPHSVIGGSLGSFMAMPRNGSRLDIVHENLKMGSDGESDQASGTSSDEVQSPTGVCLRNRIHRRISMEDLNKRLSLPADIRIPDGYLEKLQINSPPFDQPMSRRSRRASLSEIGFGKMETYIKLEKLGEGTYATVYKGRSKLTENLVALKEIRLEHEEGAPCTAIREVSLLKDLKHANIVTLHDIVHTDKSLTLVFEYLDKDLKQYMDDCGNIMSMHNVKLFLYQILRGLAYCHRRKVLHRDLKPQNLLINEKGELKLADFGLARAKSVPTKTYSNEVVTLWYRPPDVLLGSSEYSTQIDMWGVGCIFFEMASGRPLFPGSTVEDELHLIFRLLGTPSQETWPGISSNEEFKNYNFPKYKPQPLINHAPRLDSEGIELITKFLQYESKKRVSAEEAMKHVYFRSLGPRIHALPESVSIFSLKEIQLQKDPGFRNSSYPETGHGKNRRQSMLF
Chain of AURKA (human) (O14965 whole entry, looked up): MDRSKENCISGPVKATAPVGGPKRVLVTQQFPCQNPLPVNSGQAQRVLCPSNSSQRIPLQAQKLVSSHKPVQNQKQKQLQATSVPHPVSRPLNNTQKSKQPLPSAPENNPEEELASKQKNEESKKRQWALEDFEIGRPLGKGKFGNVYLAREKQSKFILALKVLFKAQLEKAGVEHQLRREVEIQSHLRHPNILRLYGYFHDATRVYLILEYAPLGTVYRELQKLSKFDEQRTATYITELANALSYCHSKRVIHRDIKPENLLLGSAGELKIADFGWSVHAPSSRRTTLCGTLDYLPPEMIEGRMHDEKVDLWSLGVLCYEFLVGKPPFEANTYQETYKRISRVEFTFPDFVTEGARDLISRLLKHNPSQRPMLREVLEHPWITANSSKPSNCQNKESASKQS
Chain of EPHA1 (human) (P21709 whole entry, looked up): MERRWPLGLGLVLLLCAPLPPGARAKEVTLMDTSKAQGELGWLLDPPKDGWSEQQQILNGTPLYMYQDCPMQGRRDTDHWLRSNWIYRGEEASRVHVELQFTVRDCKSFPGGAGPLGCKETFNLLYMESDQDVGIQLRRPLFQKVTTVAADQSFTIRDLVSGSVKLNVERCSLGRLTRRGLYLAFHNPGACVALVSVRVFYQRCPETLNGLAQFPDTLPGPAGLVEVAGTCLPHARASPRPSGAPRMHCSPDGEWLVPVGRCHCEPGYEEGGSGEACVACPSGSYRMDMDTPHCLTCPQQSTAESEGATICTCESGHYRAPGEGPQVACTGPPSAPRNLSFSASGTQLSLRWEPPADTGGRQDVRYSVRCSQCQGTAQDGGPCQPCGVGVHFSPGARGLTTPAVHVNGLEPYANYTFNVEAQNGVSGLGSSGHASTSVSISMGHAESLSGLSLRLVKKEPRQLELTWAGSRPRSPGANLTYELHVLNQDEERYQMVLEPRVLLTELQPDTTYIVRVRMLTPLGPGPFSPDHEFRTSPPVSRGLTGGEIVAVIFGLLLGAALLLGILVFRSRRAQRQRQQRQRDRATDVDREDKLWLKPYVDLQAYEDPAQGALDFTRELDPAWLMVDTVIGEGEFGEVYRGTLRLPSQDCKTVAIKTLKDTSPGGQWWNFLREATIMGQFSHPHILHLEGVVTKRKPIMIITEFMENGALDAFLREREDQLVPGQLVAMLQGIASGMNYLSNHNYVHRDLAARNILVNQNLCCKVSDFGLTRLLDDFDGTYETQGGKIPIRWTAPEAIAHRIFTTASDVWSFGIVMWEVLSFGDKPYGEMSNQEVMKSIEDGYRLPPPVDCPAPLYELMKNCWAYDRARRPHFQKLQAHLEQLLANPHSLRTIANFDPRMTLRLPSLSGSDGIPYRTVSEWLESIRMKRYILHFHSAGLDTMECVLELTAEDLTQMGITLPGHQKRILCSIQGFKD
Chain of LTK (human) (P29376 whole entry, looked up): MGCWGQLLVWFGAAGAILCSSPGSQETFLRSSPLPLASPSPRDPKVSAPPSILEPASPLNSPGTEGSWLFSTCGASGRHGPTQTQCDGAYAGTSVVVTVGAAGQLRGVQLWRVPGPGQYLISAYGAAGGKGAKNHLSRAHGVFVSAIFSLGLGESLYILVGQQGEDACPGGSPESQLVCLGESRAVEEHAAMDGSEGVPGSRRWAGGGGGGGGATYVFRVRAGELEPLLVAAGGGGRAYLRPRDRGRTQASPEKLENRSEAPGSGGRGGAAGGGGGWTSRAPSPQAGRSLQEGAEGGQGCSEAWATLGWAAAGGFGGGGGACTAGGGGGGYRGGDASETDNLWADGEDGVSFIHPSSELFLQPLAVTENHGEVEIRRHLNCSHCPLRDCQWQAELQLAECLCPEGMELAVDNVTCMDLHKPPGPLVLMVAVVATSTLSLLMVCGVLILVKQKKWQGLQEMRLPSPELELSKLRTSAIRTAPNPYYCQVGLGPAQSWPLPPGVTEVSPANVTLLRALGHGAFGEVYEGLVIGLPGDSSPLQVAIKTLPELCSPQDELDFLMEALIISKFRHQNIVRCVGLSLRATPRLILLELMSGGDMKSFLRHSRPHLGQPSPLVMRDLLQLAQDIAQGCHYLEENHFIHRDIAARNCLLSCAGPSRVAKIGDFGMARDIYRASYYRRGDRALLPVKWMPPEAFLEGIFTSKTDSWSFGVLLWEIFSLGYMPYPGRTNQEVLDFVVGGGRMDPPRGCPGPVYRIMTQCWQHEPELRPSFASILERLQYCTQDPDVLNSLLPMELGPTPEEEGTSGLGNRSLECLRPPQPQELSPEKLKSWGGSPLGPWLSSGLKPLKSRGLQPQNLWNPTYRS
Chain of CDKL3 (human) (Q8IVW4 whole entry, looked up): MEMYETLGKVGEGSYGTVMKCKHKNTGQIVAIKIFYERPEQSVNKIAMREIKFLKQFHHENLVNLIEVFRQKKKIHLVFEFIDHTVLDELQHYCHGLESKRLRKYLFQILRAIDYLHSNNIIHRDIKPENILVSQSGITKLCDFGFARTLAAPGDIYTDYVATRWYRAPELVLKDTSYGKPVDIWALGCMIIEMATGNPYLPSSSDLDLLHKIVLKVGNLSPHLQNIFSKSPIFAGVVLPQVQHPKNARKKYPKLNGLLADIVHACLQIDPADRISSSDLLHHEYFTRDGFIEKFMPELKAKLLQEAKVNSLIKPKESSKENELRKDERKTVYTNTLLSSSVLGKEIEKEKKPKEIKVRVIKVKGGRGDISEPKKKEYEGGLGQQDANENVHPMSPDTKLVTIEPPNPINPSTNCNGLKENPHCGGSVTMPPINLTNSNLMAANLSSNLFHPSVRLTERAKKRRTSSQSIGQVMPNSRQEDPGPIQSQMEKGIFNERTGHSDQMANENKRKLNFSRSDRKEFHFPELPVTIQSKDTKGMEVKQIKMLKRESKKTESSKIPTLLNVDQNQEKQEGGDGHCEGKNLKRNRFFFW
Chain of KIT (human), P10721 [A829P] (P10721 whole entry A829P, looked up): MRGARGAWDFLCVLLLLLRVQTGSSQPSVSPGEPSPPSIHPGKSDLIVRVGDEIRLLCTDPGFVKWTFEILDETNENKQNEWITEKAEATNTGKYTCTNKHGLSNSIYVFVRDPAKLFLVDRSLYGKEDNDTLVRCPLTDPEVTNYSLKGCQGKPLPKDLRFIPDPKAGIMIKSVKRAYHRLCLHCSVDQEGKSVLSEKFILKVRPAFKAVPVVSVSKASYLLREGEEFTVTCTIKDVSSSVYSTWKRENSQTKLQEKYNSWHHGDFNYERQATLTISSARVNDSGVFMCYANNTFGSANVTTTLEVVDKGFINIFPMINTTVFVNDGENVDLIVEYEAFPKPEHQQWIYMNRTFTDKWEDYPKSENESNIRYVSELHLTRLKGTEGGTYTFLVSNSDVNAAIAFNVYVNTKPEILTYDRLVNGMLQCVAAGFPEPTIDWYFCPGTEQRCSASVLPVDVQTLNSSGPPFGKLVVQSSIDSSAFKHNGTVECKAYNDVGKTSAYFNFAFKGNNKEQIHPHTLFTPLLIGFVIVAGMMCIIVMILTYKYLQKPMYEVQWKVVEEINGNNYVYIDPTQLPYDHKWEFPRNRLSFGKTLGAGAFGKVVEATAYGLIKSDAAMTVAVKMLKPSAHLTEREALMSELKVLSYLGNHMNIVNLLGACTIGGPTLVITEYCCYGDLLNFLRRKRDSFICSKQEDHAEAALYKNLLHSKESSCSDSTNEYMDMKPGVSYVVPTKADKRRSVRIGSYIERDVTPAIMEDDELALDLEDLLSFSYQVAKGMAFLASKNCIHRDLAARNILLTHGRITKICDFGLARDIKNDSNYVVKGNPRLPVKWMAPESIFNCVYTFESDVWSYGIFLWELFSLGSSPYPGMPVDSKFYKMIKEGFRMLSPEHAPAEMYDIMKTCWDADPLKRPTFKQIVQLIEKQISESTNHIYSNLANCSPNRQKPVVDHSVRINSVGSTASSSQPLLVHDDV
Chain of CLK4 (human) (Q9HAZ1 whole entry, looked up): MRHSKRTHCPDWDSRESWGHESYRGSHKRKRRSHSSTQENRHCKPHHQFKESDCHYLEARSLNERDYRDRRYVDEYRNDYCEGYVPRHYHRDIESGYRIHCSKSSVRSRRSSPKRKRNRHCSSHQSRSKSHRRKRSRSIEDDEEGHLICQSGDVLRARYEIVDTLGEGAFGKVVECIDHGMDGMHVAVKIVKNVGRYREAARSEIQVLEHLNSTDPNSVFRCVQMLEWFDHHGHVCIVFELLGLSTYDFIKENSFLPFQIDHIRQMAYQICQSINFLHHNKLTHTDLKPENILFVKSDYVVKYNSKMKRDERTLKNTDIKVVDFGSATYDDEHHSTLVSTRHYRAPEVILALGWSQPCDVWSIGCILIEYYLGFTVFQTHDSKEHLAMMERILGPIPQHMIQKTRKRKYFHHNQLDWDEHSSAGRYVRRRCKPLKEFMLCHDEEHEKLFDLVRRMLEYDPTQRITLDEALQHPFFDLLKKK

Structure (SMILES): N#C/C(=C1/Nc2ccccc2S1)c1ccnc(NCCc2cccnc2)n1
- kinase still bound, per cent of control (RIPK1 (human)): 100%
- kinase still bound, per cent of control (PAK2 (human)): 34%
- kinase still bound, per cent of control (HCK (human)): 100%
- kinase still bound, per cent of control (LTK (human)): 100%
- kinase still bound, per cent of control (FLT4 (human)): 100%
- kinase still bound, per cent of control (CRK2 (P.falciparum)): 100%
- kinase still bound, per cent of control (CDKL3 (human)): 100%
- kinase still bound, per cent of control (CDK17 (human)): 98%
- kinase still bound, per cent of control (TBK1 (human)): 81%
- kinase still bound, per cent of control (PKMYT1 (human)): 95%
- kinase still bound, per cent of control (EPHA1 (human)): 100%
- kinase still bound, per cent of control (TGFBR2 (human)): 100%
- kinase still bound, per cent of control (PLK3 (human)): 12%
- kinase still bound, per cent of control (FLT1 (human)): 100%
- kinase still bound, per cent of control (MYLK (human)): 66%
- kinase still bound, per cent of control (STK24 (human)): 80%
- kinase still bound, per cent of control (SYK (human)): 100%
- kinase still bound, per cent of control (HIPK1 (human)): 1.2%
- kinase still bound, per cent of control [1]: 73%
- kinase still bound, per cent of control (RPS6KA1 KD2 (human)): 27%
- kinase still bound, per cent of control (RET (human)): 100%
- kinase still bound, per cent of control (MYO3A (human)): 80%
- kinase still bound, per cent of control (TSSK1B (human)): 100%
- kinase still bound, per cent of control (MAP3K15 (human)): 100%
- kinase still bound, per cent of control (GRK4 (human)): 32%
- kinase still bound, per cent of control (CHEK1 (human)): 100%
- kinase still bound, per cent of control (CDK13 (human)): 61%
- kinase still bound, per cent of control (STK35 (human)): 85%
- kinase still bound, per cent of control (CDK5 (human)): 100%
- kinase still bound, per cent of control (AURKA (human)): 100%
- kinase still bound, per cent of control (SIK3 (human)): 100%
- kinase still bound, per cent of control (CLK4 (human)): 29%
- kinase still bound, per cent of control (SRPK2 (human)): 86%
- kinase still bound, per cent of control (EPHA7 (human)): 99%
- kinase still bound, per cent of control (MAP3K11 (human)): 93%
- kinase still bound, per cent of control (PIK3C2B (human)): 19%
- kinase still bound, per cent of control (HIPK2 (human)): 1.4%
- kinase still bound, per cent of control (MUSK (human)): 100%
- kinase still bound, per cent of control (CDK19 (human)): 100%
- kinase still bound, per cent of control (CaMK1 (human)): 73%

Structure (SMILES): CCCS(=O)(=O)Nc1ccc(F)c(C(=O)c2c[nH]c3ncc(Cl)cc23)c1F
- kinase still bound, per cent of control (RIPK1 (human)): 53%
- kinase still bound, per cent of control (PAK2 (human)): 37%
- kinase still bound, per cent of control (HCK (human)): 19%
- kinase still bound, per cent of control (LTK (human)): 34%
- kinase still bound, per cent of control (FLT4 (human)): 61%
- kinase still bound, per cent of control (CRK2 (P.falciparum)): 91%
- kinase still bound, per cent of control (CDKL3 (human)): 100%
- kinase still bound, per cent of control (CDK17 (human)): 56%
- kinase still bound, per cent of control (TBK1 (human)): 100%
- kinase still bound, per cent of control (PKMYT1 (human)): 100%
- kinase still bound, per cent of control (EPHA1 (human)): 100%
- kinase still bound, per cent of control (TGFBR2 (human)): 6.6%
- kinase still bound, per cent of control (PLK3 (human)): 96%
- kinase still bound, per cent of control (FLT1 (human)): 28%
- kinase still bound, per cent of control (MYLK (human)): 79%
- kinase still bound, per cent of control (STK24 (human)): 77%
- kinase still bound, per cent of control (SYK (human)): 100%
- kinase still bound, per cent of control (HIPK1 (human)): 36%
- kinase still bound, per cent of control [1]: 67%
- kinase still bound, per cent of control (RPS6KA1 KD2 (human)): 75%
- kinase still bound, per cent of control (RET (human)): 76%
- kinase still bound, per cent of control (MYO3A (human)): 35%
- kinase still bound, per cent of control (TSSK1B (human)): 83%
- kinase still bound, per cent of control (MAP3K15 (human)): 74%
- kinase still bound, per cent of control (GRK4 (human)): 100%
- kinase still bound, per cent of control (CHEK1 (human)): 82%
- kinase still bound, per cent of control (CDK13 (human)): 100%
- kinase still bound, per cent of control (STK35 (human)): 100%
- kinase still bound, per cent of control (CDK5 (human)): 57%
- kinase still bound, per cent of control (AURKA (human)): 60%
- kinase still bound, per cent of control (SIK3 (human)): 100%
- kinase still bound, per cent of control (CLK4 (human)): 51%
- kinase still bound, per cent of control (SRPK2 (human)): 100%
- kinase still bound, per cent of control (EPHA7 (human)): 99%
- kinase still bound, per cent of control (MAP3K11 (human)): 88%
- kinase still bound, per cent of control (PIK3C2B (human)): 84%
- kinase still bound, per cent of control (HIPK2 (human)): 20%
- kinase still bound, per cent of control (MUSK (human)): 71%
- kinase still bound, per cent of control (CDK19 (human)): 0.8%

Structure (SMILES): COc1cc2c(Nc3ccc(NC(=O)c4ccccc4)cc3)ncnc2cc1OCCCN1CCOCC1
- kinase still bound, per cent of control (RIPK1 (human)): 100%
- kinase still bound, per cent of control (PAK2 (human)): 89%
- kinase still bound, per cent of control (HCK (human)): 2%
- kinase still bound, per cent of control (LTK (human)): 6.3%
- kinase still bound, per cent of control (FLT4 (human)): 83%
- kinase still bound, per cent of control (CRK2 (P.falciparum)): 100%
- kinase still bound, per cent of control (CDKL3 (human)): 100%
- kinase still bound, per cent of control (CDK17 (human)): 94%
- kinase still bound, per cent of control (TBK1 (human)): 66%
- kinase still bound, per cent of control (PKMYT1 (human)): 89%
- kinase still bound, per cent of control (EPHA1 (human)): 100%
- kinase still bound, per cent of control (TGFBR2 (human)): 82%
- kinase still bound, per cent of control (PLK3 (human)): 99%
- kinase still bound, per cent of control (FLT1 (human)): 56%
- kinase still bound, per cent of control (MYLK (human)): 92%
- kinase still bound, per cent of control (STK24 (human)): 46%
- kinase still bound, per cent of control (SYK (human)): 69%
- kinase still bound, per cent of control (HIPK1 (human)): 14%
- kinase still bound, per cent of control [1]: 59%
- kinase still bound, per cent of control (RPS6KA1 KD2 (human)): 72%
- kinase still bound, per cent of control (RET (human)): 0.15%
- kinase still bound, per cent of control (MYO3A (human)): 79%
- kinase still bound, per cent of control (TSSK1B (human)): 100%
- kinase still bound, per cent of control (MAP3K15 (human)): 100%
- kinase still bound, per cent of control (GRK4 (human)): 100%
- kinase still bound, per cent of control (CHEK1 (human)): 100%
- kinase still bound, per cent of control (CDK13 (human)): 100%
- kinase still bound, per cent of control (STK35 (human)): 64%
- kinase still bound, per cent of control (AURKA (human)): 8.6%
- kinase still bound, per cent of control (SIK3 (human)): 100%
- kinase still bound, per cent of control (CLK4 (human)): 100%
- kinase still bound, per cent of control (SRPK2 (human)): 86%
- kinase still bound, per cent of control (EPHA7 (human)): 84%
- kinase still bound, per cent of control (MAP3K11 (human)): 20%
- kinase still bound, per cent of control (PIK3C2B (human)): 100%
- kinase still bound, per cent of control (HIPK2 (human)): 50%
- kinase still bound, per cent of control (MUSK (human)): 100%
- kinase still bound, per cent of control (CDK19 (human)): 100%
- kinase still bound, per cent of control (CaMK1 (human)): 55%

Structure (SMILES): CCN(CCO)CCCOc1ccc2c(Nc3cc(CC(=O)Nc4cccc(F)c4)[nH]n3)ncnc2c1
- kinase still bound, per cent of control (RIPK1 (human)): 100%
- kinase still bound, per cent of control (PAK2 (human)): 100%
- kinase still bound, per cent of control (HCK (human)): 31%
- kinase still bound, per cent of control (LTK (human)): 17%
- kinase still bound, per cent of control (FLT4 (human)): 38%
- kinase still bound, per cent of control (CRK2 (P.falciparum)): 100%
- kinase still bound, per cent of control (CDKL3 (human)): 99%
- kinase still bound, per cent of control (CDK17 (human)): 73%
- kinase still bound, per cent of control (TBK1 (human)): 90%
- kinase still bound, per cent of control (PKMYT1 (human)): 84%
- kinase still bound, per cent of control (EPHA1 (human)): 100%
- kinase still bound, per cent of control (TGFBR2 (human)): 100%
- kinase still bound, per cent of control (PLK3 (human)): 89%
- kinase still bound, per cent of control (FLT1 (human)): 1%
- kinase still bound, per cent of control (MYLK (human)): 80%
- kinase still bound, per cent of control (STK24 (human)): 43%
- kinase still bound, per cent of control (HIPK1 (human)): 40%
- kinase still bound, per cent of control [1]: 50%
- kinase still bound, per cent of control (RPS6KA1 KD2 (human)): 69%
- kinase still bound, per cent of control (RET (human)): 0.25%
- kinase still bound, per cent of control (MYO3A (human)): 81%
- kinase still bound, per cent of control (TSSK1B (human)): 87%
- kinase still bound, per cent of control (MAP3K15 (human)): 100%
- kinase still bound, per cent of control (GRK4 (human)): 100%
- kinase still bound, per cent of control (CDK13 (human)): 66%
- kinase still bound, per cent of control (STK35 (human)): 85%
- kinase still bound, per cent of control (CDK5 (human)): 100%
- kinase still bound, per cent of control (AURKA (human)): 6.5%
- kinase still bound, per cent of control (SIK3 (human)): 100%
- kinase still bound, per cent of control (CLK4 (human)): 36%
- kinase still bound, per cent of control (SRPK2 (human)): 92%
- kinase still bound, per cent of control (EPHA7 (human)): 74%
- kinase still bound, per cent of control (MAP3K11 (human)): 100%
- kinase still bound, per cent of control (PIK3C2B (human)): 58%
- kinase still bound, per cent of control (HIPK2 (human)): 31%
- kinase still bound, per cent of control (MUSK (human)): 3.3%
- kinase still bound, per cent of control (CDK19 (human)): 100%
- kinase still bound, per cent of control (CaMK1 (human)): 69%
